What was measured:
[1] = test system: Human immunodeficiency virus 1; assay: Antiviral activity against HIV1 in HEK293T cells; format: functional, organism-based; settings: Human immunodeficiency virus 1, HEK-293T
HEK293 = assay: Cytotoxicity against HEK293T cells; format: functional; settings: Homo sapiens
[2] = test system: Human immunodeficiency virus 1; assay: Antiviral activity against HIV1 L100I mutant; format: functional, organism-based
[3] = test system: Human immunodeficiency virus 1; assay: Antiviral activity against HIV1 K103N mutant; format: functional, organism-based
[4] = test system: Human immunodeficiency virus 1; assay: Antiviral activity against HIV1 V106A mutant; format: functional, organism-based
[5] = test system: Human immunodeficiency virus 1; assay: Antiviral activity against HIV1 I135T mutant; format: functional, organism-based
[6] = test system: Human immunodeficiency virus 1; assay: Antiviral activity against HIV1 I135V mutant; format: functional, organism-based
[7] = test system: Human immunodeficiency virus 1; assay: Antiviral activity against HIV1 E138K mutant; format: functional, organism-based
[8] = test system: Human immunodeficiency virus 1; assay: Antiviral activity against HIV1 V179E mutant; format: functional, organism-based
[9] = test system: Human immunodeficiency virus 1; assay: Antiviral activity against HIV1 Y181C mutant; format: functional, organism-based
[10] = test system: Human immunodeficiency virus 1; assay: Antiviral activity against HIV1 Y188L mutant; format: functional, organism-based
[11] = test system: Human immunodeficiency virus 1; assay: Antiviral activity against HIV1 F227C mutant; format: functional, organism-based
[12] = test system: Human immunodeficiency virus 1; assay: Antiviral activity against HIV1 F227L mutant; format: functional, organism-based
Rattus norvegicus [13] = assay: AUC in […] rat at 50 mg/kg, po normalized to 1 mg/kg; format: ADME, organism-based, Plasma; settings: in vivo
Rattus norvegicus [14] = assay: Cmax in […] rat at 50 mg/kg, po normalized to 1 mg/kg; format: ADME, organism-based; design: dose 50 mg/kg, route oral; settings: in vivo
[15] = Oral bioavailability in […] rat at 50 mg/kg, po; format: ADME, organism-based; settings: in vivo

O=C1Nc2ccc(Cl)cc2[C@@]12C[C@@H]2c1ccncc1
EC50 [1]: > 10000 nM
CC50 (HEK293): > 10 µM

O=C1Nc2ccc(Cl)cc2[C@@]12C[C@@H]2c1cccn1S(=O)(=O)c1ccccc1
EC50 [1]: 6770 nM
CC50 (HEK293): > 10 µM

O=C1Nc2ccc(Cl)cc2[C@@]12C[C@@H]2c1ccccc1
EC50 [1]: 244 nM
CC50 (HEK293): > 10 µM

C=Cc1cccc([C@H]2C[C@]23C(=O)Nc2ccc(Cl)cc23)n1
EC50 [1]: 5 nM
EC50 [2]: 178 nM
EC50 [3]: 11100 nM
EC50 [4]: 149 nM
EC50 [5]: 16 nM
EC50 [6]: < 3 nM
EC50 [7]: 20 nM
EC50 [8]: 88 nM
EC50 [9]: 85 nM
EC50 [10]: 22.6 µM
EC50 [11]: 578 nM
CC50 (HEK293): > 10 µM
EC50 [12]: 88 nM

CSc1nc([C@H]2C[C@]23C(=O)Nc2ccc(Cl)cc23)ccc1C#N
EC50 [1]: 436 nM
CC50 (HEK293): > 10 µM

O=C1Nc2ccc(Cl)cc2[C@@]12C[C@@H]2c1ccc2c(O)cccc2n1
EC50 [1]: 587 nM
CC50 (HEK293): > 10 µM

O=C1Nc2ccc(Cl)cc2[C@@]12C[C@@H]2c1ccc2ccccc2n1
EC50 [1]: 10 nM
CC50 (HEK293): > 10 µM

C=Cc1cccc([C@H]2C(C)(C)[C@]23C(=O)Nc2ccc(Cl)cc23)n1
EC50 [1]: 8 nM
EC50 [2]: 228 nM
EC50 [3]: 696 nM
EC50 [4]: 41 nM
EC50 [5]: 37 nM
EC50 [6]: 29 nM
EC50 [7]: 26 nM
EC50 [8]: 10 nM
EC50 [9]: 120 nM
EC50 [10]: 1.07 µM
EC50 [11]: 87 nM
CC50 (HEK293): > 10 µM
EC50 [12]: 14 nM

Cn1nnc([C@H]2C[C@]23C(=O)Nc2ccc(Cl)cc23)n1
EC50 [1]: 55 nM
CC50 (HEK293): > 10 µM

Cc1ccc([C@H]2C[C@]23C(=O)Nc2ccc(Cl)cc23)o1
EC50 [1]: 73 nM
CC50 (HEK293): > 10 µM

O=C1Nc2ccc(Cl)cc2[C@@]12C[C@@H]2c1ccccn1
EC50 [1]: 8 nM
AUC (Rattus norvegicus [13]): 5.43 µg·min/mL
Cmax (Rattus norvegicus [14]): 68.4 nM
bioavailability [15]: 46%
EC50 [2]: 174 nM
EC50 [3]: > 10000 nM
EC50 [4]: 259 nM
EC50 [5]: 127 nM
EC50 [6]: 26 nM
EC50 [7]: 45 nM
EC50 [8]: 898 nM
EC50 [9]: 3230 nM
EC50 [10]: > 10 µM
EC50 [11]: 528 nM
CC50 (HEK293): > 10 µM
EC50 [12]: 13 nM

O=C1Nc2ccc(Cl)cc2[C@@]12C[C@@H]2c1ccco1
EC50 [1]: 200 nM
CC50 (HEK293): > 10 µM

O=C1Nc2ccc(Cl)cc2[C@@]12C[C@@H]2c1ccsc1
EC50 [1]: 6 nM
EC50 [2]: 8 nM
EC50 [3]: 100 nM
EC50 [4]: 513 nM
EC50 [5]: 48 nM
EC50 [6]: 17 nM
EC50 [7]: 30 nM
EC50 [8]: 324 nM
EC50 [9]: 31 nM
EC50 [10]: 1.25 µM
EC50 [11]: 142 nM
CC50 (HEK293): 1.67 µM
EC50 [12]: 2 nM

CCc1ccc([C@H]2C[C@]23C(=O)Nc2ccc(Cl)cc23)o1
EC50 [1]: 216 nM
CC50 (HEK293): > 10 µM

O=C1Nc2ccc(Cl)cc2[C@@]12C[C@@H]2c1cccc(-c2ccccc2)n1
EC50 [1]: 138 nM
CC50 (HEK293): > 10 µM

O=C1Nc2ccc(Cl)cc2[C@@]12C[C@@H]2c1cc(Br)cs1
EC50 [1]: 1270 nM
CC50 (HEK293): > 10 µM

O=C1Nc2ccc(Cl)cc2[C@@]12C[C@@H]2c1cccc(Br)n1
EC50 [1]: 23 nM
EC50 [2]: 277 nM
EC50 [3]: 1930 nM
EC50 [4]: 166 nM
EC50 [5]: 46 nM
EC50 [6]: 14 nM
EC50 [7]: 32 nM
EC50 [8]: 48 nM
EC50 [9]: 134 nM
EC50 [10]: 6.52 µM
EC50 [11]: 145 nM
CC50 (HEK293): > 10 µM
EC50 [12]: 48 nM

O=C1Nc2ccc(Cl)cc2[C@@]12C[C@@H]2c1cc([N+](=O)[O-])cs1
EC50 [1]: > 10000 nM
CC50 (HEK293): > 10 µM

CC1(C)[C@H](c2ccc3ccccc3n2)[C@@]12C(=O)Nc1ccc(Cl)cc12
EC50 [1]: 10 nM
EC50 [2]: 58 nM
EC50 [3]: 2350 nM
EC50 [4]: 102 nM
EC50 [5]: 55 nM
EC50 [6]: 47 nM
EC50 [7]: 71 nM
EC50 [8]: 483 nM
EC50 [9]: 717 nM
EC50 [10]: > 10 µM
EC50 [11]: 2080 nM
CC50 (HEK293): > 10 µM
EC50 [12]: 381 nM

CCOC(=O)[C@H]1C(C)(C)[C@]12C(=O)Nc1ccc(Br)cc12
AUC (Rattus norvegicus [13]): 0.9 µg·min/mL
Cmax (Rattus norvegicus [14]): 17.9 nM
bioavailability [15]: 27%
CC50 (HEK293): > 10 µM

O=C1Nc2ccc(Cl)cc2[C@@]12C[C@@H]2c1cccc[n+]1[O-]
EC50 [1]: > 10000 nM
CC50 (HEK293): > 10 µM

CC#Cc1cccc([C@H]2C[C@]23C(=O)Nc2ccc(Cl)cc23)n1
EC50 [1]: 648 nM
CC50 (HEK293): > 10 µM

O=C1Nc2ccc(Cl)cc2[C@@]12C[C@@H]2c1ccccc1Br
EC50 [1]: > 10000 nM
CC50 (HEK293): > 10 µM

O=C1Nc2ccc(Cl)cc2[C@@]12C[C@@H]2c1cccc(-c2ccco2)n1
EC50 [1]: 18 nM
EC50 [2]: 2090 nM
EC50 [3]: 14300 nM
EC50 [4]: 2520 nM
EC50 [5]: 76 nM
EC50 [6]: 55 nM
EC50 [7]: 28 nM
EC50 [8]: 101 nM
EC50 [9]: 265 nM
EC50 [10]: 23.1 µM
EC50 [11]: 658 nM
CC50 (HEK293): 7.95 µM
EC50 [12]: 2350 nM

O=C1Nc2ccc(Cl)cc2[C@@]12C[C@@H]2c1ccc(-c2cccc(C(F)(F)F)c2)o1
EC50 [1]: 5550 nM
CC50 (HEK293): > 10 µM

O=C1Nc2ccc(Cl)cc2[C@@]12C[C@@H]2c1nn[nH]n1
EC50 [1]: > 10000 nM
CC50 (HEK293): 7.61 µM
